Data on two molecules can be found in the NIST ThermoML archive (doi:10.1016/j.fluid.2013.06.017).

Numbers after ± are expanded uncertainties.

For orientation: vapor or sublimation pressure means the pressure of vapour in equilibrium with the condensed phase.

The conditions of the data set: Liquid, Closed cell (Static) method.

On to `CC(F)F` [1,1-difluoroethane], for which the “vapor or sublimation pressure” value (258.15 K) was 148.6 ± 1 kPa, the “vapor or sublimation pressure” value (268.15 K) is given as 219.4 ± 1.1 kPa, the “vapor or sublimation pressure” value (278.15 K) was 314.1 ± 1.1 kPa and the “vapor or sublimation pressure” value (288.15 K) amounted to 437.8 ± 1.2 kPa.
As to `F/C=C/C(F)(F)F` [trans-1,3,3,3-tetrafluoropropene], the “vapor or sublimation pressure” value is listed as 120.2 ± 1 kPa (258.15 K), 179.3 ± 1 kPa (268.15 K), 259.2 ± 1.1 kPa (278.15 K) and 364.2 ± 1.1 kPa (288.15 K).
